Assay results reported in patent US20040063611A1, “Pharmaceutical preparation” (Merck Patent GmbH, priority 1998, published 2004).

What was measured:
[1] = non-micronized (customarily), cited from earlier work
[2] = In-vitro release Test 2 (water); assay type: physicochemical; settings: micronized, particle size between 5 μm and 25 μm (to 95%)
Excerpt: (§1) In the Federal Register Vol. 62, No. 15, Aug. 14, 1997; page 43535, the Department of Health and Human. Services, Food and Drug Administration, published the facts that the products available on the U.S. market which comprise levothyroxine sodium and are orally administered have stability problems and therefore must be present in an up to […] excess dose and that manufacturers must develop appropriate novel administration forms. The requirements on in-vitro release for levothyroxine Na tablets have furthermore been increased. The monograph draft version of the Pharmacopeial Forum (Pharm. Preview, 1995, 21, 1459-1461) proposes, in addition to the valid Test 1 (phosphate buffer pH 7.4, in 80 minutes >55%) to approve Test 2 (water in 45 minutes >70%).
(§2) With a particle size between 5 μm and 25 μm (to 95%) , however, a release of the active compound takes place in Test 1 to >90% (phosphate buffer) and in Test 2 to >80% (water).

[3] = In-vitro release Test 1 (phosphate buffer pH 7.4); assay type: physicochemical; settings: micronized, particle size between 5 μm and 25 μm (to 95%)
Excerpt: as §1, §2

- release of the active compound in Test 2 [2]: > 80%
- release of the active compound in Test 1 [3]: > 90%
Structure (SMILES): N[C@@H](Cc1cc(I)c(Oc2cc(I)c(O)c(I)c2)c(I)c1)C(=O)O [Levothyroxine sodium, levothyroxine sodium]
- solubility in ethanol ([1]; ethanol): very sparingly soluble
- solubility in water ([1]; water): very sparingly soluble
